# Measured values: US20230015949A1, “NEISSERIA TREATMENT USING CANNABINOIDS” (priority 2019, published 2023)
# Read-outs that look alike come from different tables or passages of the source.
# Legend:
# [1] = test system: Neisseria gonorrhoeae; assay: Broth microdilution MIC assay, 30 isolates (Example 2); format: cell-based
# Method: In this study, the in vitro spectrum of activity of CBD was determined against 30 isolates comprised of reference strains from the WHO, isolates from the CDC antibiotic resistance bank, and clinical isolates from the Micromyx (MMX) repository, with different resistance phenotypes. Assays were conducted following guidelines recommended by the Clinical and Laboratory Standards Institute (CLSI; 1, 2) with the exception that broth microdilution was used instead of agar dilution.
# Stock solutions of all compounds were prepared on the day of testing using solvents recommended by CLSI. Stock solutions of all compounds were made at 101× the final testing concentration. CBD was supplied by Cerilliant (Round Rock, Tex.) as a 1 mg/mL methanolic solution which was stored at −20° C. after receipt. Prior to testing, using a 5 mL aliquot of the CBD methanolic solution, the methanol was dried off and the residual CBD was resuspended in 774 μL DMSO resulting in a 6.464 mg/mL solution.
# The test organisms evaluated in this study consisted of Neisseria gonorrhoeae isolates from the Micromyx repository and reference isolates from the American Type Culture Collection (ATCC; Manassas, Va.), Centers for Disease Control and Prevention (CDC; Atlanta, Ga.) or the National Collection of Type Cultures (NCTC; Public Health England, Salisbury, UK). Upon initial receipt at Micromyx, the organisms were sub-cultured onto an appropriate agar medium.
# (§1) Following incubation, colonies were harvested from these plates and cell suspensions prepared and frozen at −80° C. with a cryoprotectant. Prior to testing, N. gonorrhoeae isolates were streaked onto Chocolate Agar [Becton Dickinson, (BD), Sparks, Md.; Lot No. 922807]; Staphylococcus aureus ATCC 29213 tested for quality control (QC) purposes was streaked onto Trypticase Soy Agar with 5% Sheep Blood (TSA II; BD; Lot No. 9219399).
# For N. gonorrhoeae, a modified medium described by the ATCC as capable of supporting the growth of N. gonorrhoeae (Neisseria peptone medium) was used for the broth microdilution MIC assay. This medium contained 15 g Oxoid Special Peptone (Lot No. 1280296; Oxoid, Hampshire, UK), 1 g corn starch (Lot No. AD-13344-14; Ward's Science; Rochester, N.Y.), 5 g NaCl (Lot No. 57897; VWR, Radnor, Pa.), 4 g K2HPO4 (Lot No. SLBT7061; Sigma), and 1 g KH2PO4 (Lot No. SLBC1921V; Sigma). After autoclaving, the medium was centrifuged at 5,000×g for 10 min, the supernatant was passed through a 0.45 μm filter, and IsoVitaleX supplement (Lot No. 8323954; BD) was added at 1% (v/v).
# (§2) MIC values were determined using a broth microdilution procedure described by CLSI (1, 2). Automated liquid handlers (Multidrop 384, Labsystems, Helsinki, Finland; Biomek 2000 and Biomek FX, Beckman Coulter, Fullerton Calif.) were used to conduct serial dilutions and liquid transfers.
# (§3) To prepare the drug mother plates, which would provide the serial drug dilutions for the replicate daughter plates, the wells of columns 2 through 12 of standard 96-well microdilution plates (Costar 3795) were filled with 150 μl of the designated diluent for each row of drug. The test articles and comparator compounds (300 μl at 100× the highest concentration to be tested) were dispensed into the appropriate wells in column 1. The Biomek 2000 was then used to make 2-fold serial dilutions in the mother plates from column 1 through column 11. The wells of column 12 contained no drug and served as the organism growth control wells for the assay.
# (§4) The daughter plates were loaded with 190 μL per well of the appropriate test medium for the tested organism using the Multidrop 384. The daughter plates were completed on the Biomek FX instrument which transferred 2 μL of drug solution from each well of a mother plate to the corresponding well of each daughter plate in a single step. Daughter plates for the testing of anaerobes were allowed to pre-reduce in the Bactron II anaerobe chamber for 2 hr prior to inoculation.
# [2] = test system: Staphylococcus aureus ATCC 29213; assay: Broth microdilution MIC assay, quality control strain (Example 2); format: cell-based; conditions: ATCC29213, S. aureus ATCC 29213 (QC), CAMHB
# Method: as §1
# Cation-adjusted Mueller Hinton broth (CAMHB; BD; Lot No. 9019592) was used for MIC testing of S. aureus ATCC 29213 for QC purposes.
# as §2, §3, §4
# A standardized inoculum of each test organism was prepared per CLSI methods (1, 2). The inoculum for each organism was dispensed into sterile reservoirs divided by length (Beckman Coulter), and the Biomek 2000 was used to inoculate the plates. Daughter plates were placed on the Biomek 2000 work surface in reverse orientation so that inoculation took place from low to high drug concentration. Anaerobic organisms were inoculated by hand in the Bactron II anaerobic chamber. Bacterial plates were then inoculated with 10 μL of the inoculum resulting in a final cell density of approximately 5×10^5 CFU/mL.
# Plates were stacked 3 to 4 high, covered with a lid on the top plate and placed in plastic bags. […] The MIC was read and recorded as the lowest concentration of drug that inhibited visible growth of the organism.
# [3] = 30 isolates of N. gonorrhoeae, broth microdilution, MIC distribution
# [4] = 30 isolates, broth dilution assay, MIC distribution (Table 6)
structure (smiles),measurement,setting,value
"CC[C@H]1OC(=O)[C@H](C)[C@@H](O[C@H]2C[C@@](C)(OC)[C@@H](O)[C@H](C)O2)[C@H](C)[C@@H](O[C@@H]2O[C@H](C)C[C@H](N(C)C)[C@H]2O)[C@](C)(O)C[C@@H](C)CN(C)[C@H](C)[C@@H](O)[C@]1(C)O [AZI, azithromycin]",MIC,[1],0.25 µg/mL
same,MIC90,"[1]; 30 isolates of N. gonorrhoeae, broth microdilution",>8 µg/mL
same,Number of isolates at MIC value 0.015 μg/mL,[1]; [3],0
same,Number of isolates at MIC value 0.03 μg/mL,[1]; [3],0
same,Number of isolates at MIC value 0.06 μg/mL,[1]; [3],2
same,Number of isolates at MIC value 0.5 μg/mL,[1]; [3],2
same,Number of isolates at MIC value 1 μg/mL,[1]; [3],1
same,Number of isolates at MIC value 2 μg/mL,[1]; [3],2
same,Number of isolates at MIC value 4 μg/mL,[1]; [3],1
same,Number of isolates at MIC value 8 μg/mL,[1]; [3],1
same,Number of isolates at MIC value >8 μg/mL,[1]; [3],4
same,Number of isolates at MIC 0.08 μg mL^−1,[1]; [4],0
same,Number of isolates at MIC ≤0.004 μg mL^−1,[1]; [4],0
same,MIC,"[1]; Neisseria gonorrhoeae, ATCC49226, N. gonorrhoeae ATCC 49226 (QC), broth microdilution, read-out: MIC",0.25 µg/mL
same,MIC,"[1]; Neisseria gonorrhoeae, N. gonorrhoeae CDC 0165 (CIP-R, AZI MIC 1), broth microdilution, read-out: MIC",1 µg/mL
same,MIC,"[1]; Neisseria gonorrhoeae, N. gonorrhoeae CDC 0166 (CIP-R, AZI MIC 1), broth microdilution, read-out: MIC",0.5 µg/mL
same,MIC,"[1]; Neisseria gonorrhoeae, N. gonorrhoeae CDC 0167 (CIP-S, AZI MIC 8), broth microdilution, read-out: MIC",> 8 µg/mL
same,MIC,"[1]; Neisseria gonorrhoeae, N. gonorrhoeae CDC 0172 (CIP-R, AZI MIC 0.5), broth microdilution, read-out: MIC",0.25 µg/mL
same,MIC,"[1]; Neisseria gonorrhoeae, N. gonorrhoeae CDC 0175 (CIP-S, AZI MIC 16), broth microdilution, read-out: MIC",> 8 µg/mL
same,MIC,"[1]; Neisseria gonorrhoeae, N. gonorrhoeae CDC 0177 (CIP-S, AZI MIC 2), broth microdilution, read-out: MIC",2 µg/mL
same,MIC,"[1]; Neisseria gonorrhoeae, N. gonorrhoeae CDC 0181 (CIP-S, AZI MIC 256), broth microdilution, read-out: MIC",> 8 µg/mL
same,MIC,"[1]; Neisseria gonorrhoeae, N. gonorrhoeae CDC 0194 (CRO-NS, CIP-S, AZI MIC 0.5), broth microdilution, read-out: MIC",0.25 µg/mL
same,MIC,"[1]; Neisseria gonorrhoeae, N. gonorrhoeae MMX 6921 (CIP-R), broth microdilution, read-out: MIC",8 µg/mL
same,MIC,"[1]; Neisseria gonorrhoeae, N. gonorrhoeae MMX 6938 (CIP-S), broth microdilution, read-out: MIC",0.25 µg/mL
same,MIC,"[1]; Neisseria gonorrhoeae, N. gonorrhoeae MMX 10409 (CIP-R), broth microdilution, read-out: MIC",0.25 µg/mL
same,MIC,"[1]; Neisseria gonorrhoeae, N. gonorrhoeae MMX 10410 (CIP-S), broth microdilution, read-out: MIC",0.12 µg/mL
same,MIC,"[1]; Neisseria gonorrhoeae, N. gonorrhoeae MMX 10447 (CIP-S), broth microdilution, read-out: MIC",0.06 µg/mL
same,MIC,"[1]; Neisseria gonorrhoeae, N. gonorrhoeae MMX 10450 (CIP-S), broth microdilution, read-out: MIC",0.12 µg/mL
same,MIC,"[1]; Neisseria gonorrhoeae, N. gonorrhoeae MMX 10452 (CIP-R), broth microdilution, read-out: MIC",0.12 µg/mL
same,MIC,"[1]; Neisseria gonorrhoeae, N. gonorrhoeae MMX 10454 (CIP-R), broth microdilution, read-out: MIC",0.12 µg/mL
same,MIC,"[1]; Neisseria gonorrhoeae, NCTC13477, N. gonorrhoeae NCTC 13477 (WHO F; CIP-S, AZI MIC […]), broth microdilution, read-out: MIC",0.06 µg/mL
same,MIC,"[1]; Neisseria gonorrhoeae, NCTC13478, N. gonorrhoeae NCTC 13478 (WHO G; CIP-I, AZI MIC […]), broth microdilution, read-out: MIC",0.25 µg/mL
same,MIC,"[1]; Neisseria gonorrhoeae, NCTC13479, N. gonorrhoeae NCTC 13479 (WHO K; CIP-R, AZI MIC […]), broth microdilution, read-out: MIC",0.25 µg/mL
same,MIC,"[1]; Neisseria gonorrhoeae, NCTC13480, N. gonorrhoeae NCTC 13480 (WHO L; CIP-R, AZI MIC 0.5), broth microdilution, read-out: MIC",0.25 µg/mL
same,MIC,"[1]; Neisseria gonorrhoeae, NCTC13481, N. gonorrhoeae NCTC 13481 (WHO M; CIP-R, AZI MIC […]), broth microdilution, read-out: MIC",0.12 µg/mL
same,MIC,"[1]; Neisseria gonorrhoeae, NCTC13482, N. gonorrhoeae NCTC 13482 (WHO N; CIP-R, AZI MIC […]), broth microdilution, read-out: MIC",0.12 µg/mL
same,MIC,"[1]; Neisseria gonorrhoeae, NCTC13483, N. gonorrhoeae NCTC 13483 (WHO O; CIP-S, AZI MIC […]), broth microdilution, read-out: MIC",0.25 µg/mL
same,MIC,"[1]; Neisseria gonorrhoeae, NCTC13484, N. gonorrhoeae NCTC 13484 (WHO P; CIP-S, AZI MIC 4), broth microdilution, read-out: MIC",4 µg/mL
same,MIC,"[1]; Neisseria gonorrhoeae, NCTC13817, N. gonorrhoeae NCTC 13817 (WHO U; CIP-S, AZI MIC 4), broth microdilution, read-out: MIC",2 µg/mL
same,MIC,"[1]; Neisseria gonorrhoeae, NCTC13818, N. gonorrhoeae NCTC 13818 (WHO V; CIP-R, AZI MIC >256), broth microdilution, read-out: MIC",> 8 µg/mL
same,MIC,"[1]; Neisseria gonorrhoeae, NCTC13819, N. gonorrhoeae NCTC 13819 (WHO W; CIP-R, AZI MIC 0.5), broth microdilution, read-out: MIC",0.25 µg/mL
same,MIC,"[1]; Neisseria gonorrhoeae, NCTC13820, N. gonorrhoeae NCTC 13820 (WHO X; CRO-NS, CIP-R, AZI MIC 0.5), broth microdilution, read-out: MIC",0.25 µg/mL
same,MIC,"[1]; Neisseria gonorrhoeae, NCTC13821, N. gonorrhoeae NCTC 13821 (WHO Y; CIP-R, AZI MIC 1), broth microdilution, read-out: MIC",0.5 µg/mL
same,MIC50,"[1]; Neisseria gonorrhoeae, 30 isolates of N. gonorrhoeae, broth microdilution, read-out: MIC50",0.25 µg/mL
same,MIC90,"[1]; Neisseria gonorrhoeae, 30 isolates of N. gonorrhoeae, broth microdilution, read-out: MIC90",> 8 µg/mL
same,MIC,"[1]; Neisseria gonorrhoeae, 30 isolates of N. gonorrhoeae, broth microdilution, read-out: MIC Mode",0.25 µg/mL
same,MIC,[2],0.5 µg/mL
